Source: patent US20170312301A1, “SKIN BARRIER FUNCTION-IMPROVING AGENT AND COMPOSITION FOR IMPROVING SKIN BARRIER FUNCTION” (SHOWA DENKO K.K., priority 2014, published 2017)

Tests used:
[1] = test system: occludin; test: Test for evaluating TJ-forming ability: occludin immunostaining fluorescence intensity in Skin Model slices; format: cell-based; conditions: 1 w/v %, relative to non-applied group
[2] = test system: Skin Model (type EP1-200); test: Test for evaluating TJ-forming ability: transepidermal water loss (TEWL) of Skin Model; format: cell-based; conditions: 1 w/v % on surface of Skin Model, 24 hours
Experimental: Skin Model (type “EP1-200” manufactured by KURABO INDUSTRIES LTD.) was cultured before 24 hours at 37° C. under 5% CO2. Next, an inositol derivative (composition thereof will be described below) dissolved in purified water in each concentration of 0.1, 0.5, and 1 w/v % was added to the surface of Skin Model, and culturing was further performed for 24 hours. Next, the inositol derivative was removed, Skin Model was washed three times with a phosphate buffer solution, and transepidermal water loss (TEWL) thereof was measured. For the measurement of TEWL, a cyclone-type moisture-transpiration meter (manufactured by […]) was used. The inositol derivative used was analyzed by using liquid chromatography-mass spectrometry (LC-MS), and the results are as follows. […] As for a control, prepared were a group added with nothing in place of the inositol derivative and a group added with the same amount of purified water in place of the inositol derivative, and TEWL was measured in the same manner as above. In addition, for comparison, prepared was a group in which myo-inositol dissolved in purified water in a concentration of 1 w/v % was added in place of the inositol derivative, and TEWL was measured in the same manner as above.

[3] = test system: TRPV4 gene; test: Promoting effect on TRPV4 gene expression (quantitative real-time PCR, standardized to GAPDH); format: cell-based, human; conditions: SVHK cells, 1 μM, 48 hours, purified water control = 1.00
Experimental: Human epidermal cells (SVHK cells) which were established from introduction of SV40 gene into human epidermal cells, were seeded on a plastic petri dish at a seeding density of 10,000 cells/cm^2 and cultured for 24 hours in Dulbecco's Modified Eagle's Medium (DMEM, manufactured by Sigma-Aldrich Co. LLC.) containing 10% fetal bovine serum. Next, to the medium of SVHK cells, an inositol derivative (composition thereof will be described below) dissolved in purified water was added to the final concentration of 1 μM, and culturing was further performed for 48 hours. As for a control, in place of 1 μM inositol derivative, the same amount of purified water was added to SVHK cells, and the cells were cultured in the same manner as above. […] The inositol derivative used was analyzed by using liquid chromatography-mass spectrometry (LC-MS), and the results are as follows. […] Next, quantitative real-time PCR was performed using this cDNA as a template, and the expression levels of TRPV4 gene in SVHK cells of each group were quantified. In addition, the expression level of glyceraldehyde-3-phosphate dehydrogenase (GAPDH) which is a housekeeping gene in which variation is not observed in the expression by adding a compound, as an internal standard gene, was quantified, and based on the expression levels of GAPDH gene in SVHK cells of each group, the expression levels of TRPV4 gene were standardized. […]

[4] = test system: occludin (OCL) gene; test: Promoting effect on TJ-related gene expression: occludin (OCL) gene (quantitative real-time PCR, standardized to GAPDH); format: cell-based, human; conditions: SVHK cells, 1 μM, 48 hours, purified water control = 1.00
Experimental: (§1) Human epidermal cells (SVHK cells) which were established from introduction of SV40 gene into human epidermal cells, were seeded on a plastic petri dish at a seeding density of 10,000 cells/cm^2 and cultured for 24 hours in Dulbecco's Modified Eagle's Medium (DMEM, manufactured by Sigma-Aldrich Co. LLC.) containing 10% fetal bovine serum. Next, to the medium of SVHK cells, 1 μM inositol derivative (composition thereof will be described below) dissolved in purified water was added to the final concentration of 1 μM, and culturing was further performed for 48 hours. […] The inositol derivative used was analyzed by using liquid chromatography-mass spectrometry (LC-MS), and the results are as follows. […] Next, quantitative real-time PCR was performed using this cDNA as a template, and the expression levels of claudin-1 (CLDN1) gene and occludin (OCL) gene in SVHK cells of each group were quantified. In addition, the expression level of glyceraldehyde-3-phosphate dehydrogenase (GAPDH) which is a housekeeping gene in which variation is not observed in the expression by adding a compound, as an internal standard gene, was quantified, and based on the expression levels of GAPDH gene in SVHK cells of each group, the expression levels of CLDN1 gene and OCL gene were standardized. […]

[5] = test system: claudin-1 (CLDN1) gene; test: Promoting effect on TJ-related gene expression: claudin-1 (CLDN1) gene (quantitative real-time PCR, standardized to GAPDH); format: cell-based, human; conditions: SVHK cells, 1 μM, 48 hours, purified water control = 1.00
Experimental: as §1

## O[C@H]1[C@H](O)[C@@H](O)[C@H](O)[C@@H](O)[C@H]1O [Myo-inositol, myo-inositol]
[1]
  Fluorescence intensity (relative value): 3.32 relative value
[2]
  TEWL: 30.7 ± 2.9 g/(h · m^2)
[3]
  Expression levels of TRPV4 gene (relative value): 0.84 relative value
[4]
  Expression levels of gene (relative value) OCL: 0.94 relative value
[5]
  Expression levels of gene (relative value) CLDN1: 1.57 relative value
